According to publication PMC6592956, “Characterization of Porcine Hepatic and Intestinal Drug Metabolizing CYP450: Comparison with Human Orthologues from A Quantitative, Activity and Selectivity Perspective” (Scientific Reports, 2019):
Marks after values point to notes of the source that are not given here.

How the values were obtained:
[1] = system: T1, CYP2C; test: Group mean of log10 Km (Km in µM) for porcine hepatic microsomes from 8 male pigs, probe metabolism at 37 °C, LC-MS/MS.; assay type: biochemical, pig liver microsomes; conditions: n = 8
T1 construct: native enzymes in hepatic or duodenal microsomes

[2] = system: T1, CYP2C; test: Group mean of log10 Km (Km in µM) for porcine hepatic microsomes from 8 female pigs, probe metabolism at 37 °C, LC-MS/MS.; assay type: biochemical, pig liver microsomes; conditions: n = 8
[3] = system: porcine intestinal CYP450 enzymes; conditions: intestinal versus hepatic microsomes
Experimental: (§1) Intestinal microsomes were incubated as described above for hepatic microsomes. […] Each activity measurement (hepatic and intestinal) was performed in triplicate and data are present [...

[4] = system: porcine CYP450; conditions: outcome of general decision tree, Figure 4
[5] = system: porcine intestinal CYP450 enzymes; test: in vitro; conditions: pig
Experimental: as §1

[6] = system: hepatic CYP450 abundancies; test: Pearson correlation between hepatic CYP450 abundancies and probe activities
[7] = system: CYP1A; conditions: n = 8
Experimental: (§2) The incubation times were derived from linearity experiments. […] Protein concentrations and time were chosen at the lowest possible value to allow reliable quantification, within the linear range of the biotransformation reaction.
(§3) The activity data were fitted against the standard Michaelis-Menten equation (Eq. (1a), first term). For each profile, Eadie-Hofstee plots were derived to investigate involvement of more than one enzyme or deviation from normal Michaelis-Menten behaviour. If the Eadie-Hofstee plot was hyperbolic, the data was fitted against the Hill equation[60]. Km, Vmax and/or Hill coefficients were derived for each substrate and pig, in order to obtain the inter-individual variation.
(§4) Stepwise linear regression, correlation analyses, and independent sample t-tests were performed with the SPSS® 24 software (IBM, New York, USA). Sex differences in hepatic protein abundances, Km, and Vmax values, were analyzed by an independent sample t-test. Normality was checked using the Shapiro Wilk test. If the Shapiro Wilk test statistic was significant, log transformation was used to calculate the t-statistic. Equality of variances was checked using the Levene’s test for equality of variances. The appropriate test statistic was used depending on the equality of variances.

[8] = system: CYP1A; conditions: n = 8; remark: listed apart in the source
Experimental: as §2, §3, §4

[9] = molecular target: CYP2C9/19; conditions: cited from earlier work
Experimental: The inhibitors used were α-NFV, 8-MPS, KET, SFZ, QND, and DDC for CYP1A/2 A, CYP2A, CYP3A, CYP2C, CYP2D, and CYP2E1, respectively. […] All incubations were performed in triplicate.

SMILES: CCCCNC(=O)NS(=O)(=O)c1ccc(C)cc1 [TB, tolbutamide]
- log_Km, male [1]: 3,0641
- log_Km, female [2]: 3,3239
- Vmax in intestinal microsomes as % of the hepatic Vmax [3]: 2%
- Enzyme involvement: Low affinity [4]: CYP2C, CYP3A
- Km at 10 min ([5]; duodenal microsomes): 1410 µM
- Pearson's correlation coefficient, TB activity vs hepatic CYP2C33 abundance ([6]; level 1 (TB 5.00 µM)): 0.53
- Pearson's correlation coefficient, TB activity vs hepatic CYP2C49 abundance ([6]; level 1 (TB 5.00 µM)): 0.64*
- Pearson's correlation coefficient, TB activity vs hepatic CYP2C33 abundance ([6]; level 2 (TB 10.0 µM)): 0.55
- Pearson's correlation coefficient, TB activity vs hepatic CYP2C49 abundance ([6]; level 2 (TB 10.0 µM)): 0.65*
- Pearson's correlation coefficient, TB activity vs hepatic CYP2C33 abundance ([6]; level 3 (TB 50.0 µM)): 0.62*
- Pearson's correlation coefficient, TB activity vs hepatic CYP2C49 abundance ([6]; level 3 (TB 50.0 µM)): 0.68*
- Pearson's correlation coefficient, TB activity vs hepatic CYP2C33 abundance ([6]; level 4 (TB 100 µM)): 0.62*
- Pearson's correlation coefficient, TB activity vs hepatic CYP2C49 abundance ([6]; level 4 (TB 100 µM)): 0.71*
- Pearson's correlation coefficient, TB activity vs hepatic CYP2C33 abundance ([6]; level 5 (TB 200 µM)): 0.62*
- Pearson's correlation coefficient, TB activity vs hepatic CYP2C49 abundance ([6]; level 5 (TB 200 µM)): 0.69*
- Pearson's correlation coefficient, TB activity vs hepatic CYP2C33 abundance ([6]; level 6 (TB 400 µM)): 0.61
- Pearson's correlation coefficient, TB activity vs hepatic CYP2C49 abundance ([6]; level 6 (TB 400 µM)): 0.72*

SMILES: CCOc1ccc(NC(C)=O)cc1 [PH, Phenacetin]
- Km at 10 min ([5]; duodenal microsomes): 144 µM
- Km at 10 min ([5]; ileal microsomes): 189 µM
- Km at 10 min ([5]; jejunal microsomes): 182 µM
- Pearson's correlation coefficient, PH activity vs hepatic CYP3A46 abundance ([6]; level 6 (PH 200 µM)): 0.51

SMILES: CCOc1ccc(NC(C)=O)cc1 [PH, phenacetin]
- log_Km, male [7]: 1,2876
- log_Km, female [8]: 1,1345

SMILES: Nc1ccc(S(=O)(=O)Nc2ccnn2-c2ccccc2)cc1 [SFZ, sulphaphenazole]
- Ki [9]: 120 to 700 nM
